Like-named read-outs stand apart in the source and are kept apart here.
Biological target: T1, human α7 nAChR stably expressed in a HEK cell line (with human RIC-3) (Homo sapiens, UniProt P36544)
T1 construct: PrecisION hnAChR α7/RIC-3
Test: Automated patch-clamp electrophysiology functional assay (Assay A), IonFlux HT, whole-cell population patch
Assay type: cell-based
Method in brief: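 Whole-cell population patch clamp (IonFlux HT) used HEK cells stably co-expressing human α7 and RIC-3, held at −60 mV at room temperature. Compounds were applied alone (agonism) or with 40 μM acetylcholine (potentiation), three ascending concentrations per recording. Currents were quantified relative to a 40 μM acetylcholine reference response, giving EC50.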

[1] = automated patch-clamp electrophysiology functional assay (Assay A), potency class by EC50, read-out: α7 nAChR Potency
[2] = electrophysiology EC50, HEK cells expressing human α7/RIC-3, 40 μM acetylcholine, holding potential −60 mV, room temperature, read-out: α7 nAChR EC50

T1 sequence (P36544 23-502): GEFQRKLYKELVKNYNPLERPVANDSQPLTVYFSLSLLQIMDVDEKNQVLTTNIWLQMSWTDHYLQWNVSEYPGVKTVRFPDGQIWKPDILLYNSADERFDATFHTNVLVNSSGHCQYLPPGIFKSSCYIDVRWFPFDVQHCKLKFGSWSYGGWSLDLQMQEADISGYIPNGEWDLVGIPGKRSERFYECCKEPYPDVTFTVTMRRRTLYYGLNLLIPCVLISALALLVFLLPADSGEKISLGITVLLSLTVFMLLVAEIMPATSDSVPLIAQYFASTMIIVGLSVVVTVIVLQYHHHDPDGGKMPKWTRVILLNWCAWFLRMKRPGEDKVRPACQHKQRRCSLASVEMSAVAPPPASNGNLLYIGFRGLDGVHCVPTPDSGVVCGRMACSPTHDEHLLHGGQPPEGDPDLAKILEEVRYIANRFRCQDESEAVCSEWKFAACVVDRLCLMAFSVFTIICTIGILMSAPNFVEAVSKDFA

Structure (SMILES)	EC50 [1]	EC50 [2]
CC1(C)[C@H](c2ccc(S(N)(=O)=O)cc2)[C@H]1c1nc(C2CCCCC2)no1 [Example 20, 4-((1R,3R)-3-(3-Cyclohexyl-1,2,4-oxadiazol-5-yl)-2,2-dimethylcyclopropyl)benzenesulfonamide]	0.5 to 5 µM	0.66 µM
CC1(C)[C@@H](c2ccc(S(N)(=O)=O)cc2)[C@@H]1c1nc(-c2ccc(F)cc2C(F)(F)F)no1 [Example C2]	0.5 to 5 µM	
NS(=O)(=O)c1ccc([C@@H]2C[C@H]2c2nc(-c3ccc(F)cc3)no2)cc1 [Example C14]	≤ 0.1 µM	0.093 µM
COc1ccc(Cl)cc1-c1noc([C@@H]2C[C@H]2c2ccc(S(N)(=O)=O)cc2)n1 [Example 19, 4-{(1R,2R)-2-[3-(5-Chloro-2-methoxyphenyl)-1,2,4-oxadiazol-5-yl]cyclopropyl}benzenesulfonamide]	0.5 to 5 µM	0.78 µM
CC1(C)[C@H](c2ccc(S(N)(=O)=O)cc2)[C@H]1c1nc(-c2ccccc2F)no1 [Example A12]	0.5 to 5 µM	
NS(=O)(=O)c1ccc([C@@H]2C[C@H]2c2nc(-c3cccnc3C3CC3)no2)cc1 [Example D24]	0.1 to 0.5 µM	0.23 µM
CC1(C)[C@@H](c2ccc(S(N)(=O)=O)cc2)[C@@H]1c1nnc(-c2ccc(F)cc2F)o1 [Example 6, 4-{(1S,3S)-3-[5-(2,4-Difluorophenyl)-1,3,4-oxadiazol-2-yl]-2,2-dimethylcyclopropyl}benzenesulfonamide]	0.5 to 5 µM	1.1 µM
CC1(C)[C@@H](c2ccc(S(N)(=O)=O)cc2)[C@@H]1c1nc(-c2cnccc2C(F)(F)F)no1 [Example D2]	0.5 to 5 µM	
CC1(C)[C@H](c2ccc(S(N)(=O)=O)cc2)[C@H]1c1nc(-c2c(F)cccc2F)no1 [Example A11]	0.5 to 5 µM	0.96 µM
CC1(C)[C@H](c2ccc(S(N)(=O)=O)cc2)[C@H]1c1nc(C2CCCC2)no1 [Example B9]	0.5 to 5 µM	1 µM
NS(=O)(=O)c1ccc([C@@H]2C[C@H]2c2nc(-c3ccc(F)cc3C(F)(F)F)no2)cc1 [Example C7]	0.5 to 5 µM	0.96 µM
CC1(C)[C@H](c2ccc(S(N)(=O)=O)cc2)[C@H]1c1nc(C2CC(F)(F)C2)no1 [Example B8]	0.5 to 5 µM	
CC1(C)[C@H](c2ccc(S(N)(=O)=O)cc2)[C@H]1c1nc(-c2ccccc2)no1 [Example A3]	0.5 to 5 µM	
Cc1noc([C@H]2[C@H](c3ccc(S(N)(=O)=O)cc3)C2(C)C)n1 [Example D13]	5 to 50 µM	6 µM
CC1(C)[C@H](c2ccc(S(N)(=O)=O)cc2)[C@H]1c1nc(C2CC2)c(C2CC2)o1 [Example 31, 4-[(1R,3R)-3-(4,5-Dicyclopropyl-1,3-oxazol-2-yl)-2,2-dimethylcyclopropyl]benzenesulfonamide]	0.5 to 5 µM	2.4 µM
CC1(C)[C@@H](c2ccc(S(N)(=O)=O)cc2)[C@@H]1c1nc(C2CCCCC2)no1 [Example D3]	0.1 to 0.5 µM	0.15 µM

Structure (SMILES)	EC50 [1]	EC50 [2]
CC1(C)[C@@H](c2ccc(S(N)(=O)=O)cc2)[C@@H]1c1nc(-c2ccccc2)no1 [Example C4]	0.1 to 0.5 µM	0.37 µM
CC(C)(F)c1noc([C@H]2[C@H](c3ccc(S(N)(=O)=O)cc3)C2(F)F)n1 [Example D35]	0.1 to 0.5 µM	0.41 µM
CC1(C)[C@H](c2ccc(S(N)(=O)=O)cc2)[C@H]1c1cnn(-c2cccc(F)c2)c1 [Example 13, 4-{(1R,3R)-3-[1-(3-Fluorophenyl)-1H-pyrazol-4-yl]-2,2-dimethylcyclopropyl}benzenesulfonamide]	0.1 to 0.5 µM	0.34 µM
CC1(C)[C@H](c2ccc(S(N)(=O)=O)cc2)[C@H]1c1nc(C2CCOC2)no1 (stereo partly drawn) [Example B11]	5 to 50 µM	5.8 µM
CC1(C)[C@H](c2ccc(S(N)(=O)=O)cc2)[C@H]1c1nc(C2(c3ccccc3)CC2)no1 [Example B13]	0.5 to 5 µM	4.1 µM
CC(C)(C)c1noc([C@@H]2[C@@H](c3ccc(S(N)(=O)=O)cc3)C2(F)F)n1 [Example B17]	0.5 to 5 µM	0.85 µM
Cc1ccccc1-c1noc([C@@H]2C[C@H]2c2ccc(S(N)(=O)=O)cc2)n1 [Example C17]	0.1 to 0.5 µM	
NS(=O)(=O)c1ccc([C@@H]2C[C@H]2c2nc(C3(c4ccccc4)CC3)no2)cc1 [Example D23]	0.5 to 5 µM	2.1 µM
CC1(C)[C@H](c2ccc(S(N)(=O)=O)cc2)[C@H]1c1cc(-c2ccccc2)no1 [Example 11, 4-[(1R,3R)-2,2-Dimethyl-3-(3-phenylisoxazol-5-yl)cyclopropyl]benzenesulfonamide]	0.1 to 0.5 µM	0.46 µM
Cc1ncccc1-c1noc([C@@H]2C[C@H]2c2ccc(S(N)(=O)=O)cc2)n1 [Example D16]	0.5 to 5 µM	1.3 µM
CC(C)c1noc([C@@H]2C[C@H]2c2ccc(S(N)(=O)=O)cc2)n1 [Example D11]	0.1 to 0.5 µM	0.43 µM
NS(=O)(=O)c1ccc([C@@H]2C[C@H]2c2cnc(-c3ccccc3)s2)cc1 [Example 27, 4-[(1R,2R)-2-(2-Phenyl-1,3-thiazol-5-yl)cyclopropyl]benzenesulfonamide]	0.5 to 5 µM	0.62 µM
CC1(C)[C@H](c2ccc(S(N)(=O)=O)cc2)[C@H]1c1nc(C2CCCO2)no1 (stereo partly drawn) [Example B12]	5 to 50 µM	
NS(=O)(=O)c1ccc([C@@H]2C[C@H]2c2nc(C3CCCCC3)no2)cc1 [Example D8]	0.1 to 0.5 µM	0.19 µM
CC1(C)[C@H](c2ccc(S(N)(=O)=O)cc2)[C@H]1c1nc(C2CC3(CCC3)C2)no1 (stereo partly drawn) [Example B15]	0.5 to 5 µM	
CC1(C)[C@@H](c2ccc(S(N)(=O)=O)cc2)[C@@H]1c1nc(C2CC2)no1 [Example D9]	0.1 to 0.5 µM	

Now from value to compound:

EC50 [1]	EC50 [2]	Structure (SMILES)
0.5 to 5 µM	0.95 µM	CC1(C)[C@@H](c2ccc(S(N)(=O)=O)cc2)[C@@H]1c1cn(-c2cccc(F)c2)nn1 [Example L6]
0.5 to 5 µM		CC1(C)[C@@H](c2ccc(S(N)(=O)=O)cc2)[C@@H]1c1cnc(-c2ccccc2)o1 [Example L1]
0.1 to 0.5 µM	0.35 µM	CC(F)(F)c1nc([C@H]2[C@H](c3ccc(S(N)(=O)=O)cc3)C2(C)C)no1 [Example I16]
0.1 to 0.5 µM		CC1(C)[C@@H](c2ccc(S(N)(=O)=O)cc2)[C@@H]1c1noc(-c2cccc(OC(F)(F)C(F)F)c2)n1 [Example H14]
0.5 to 5 µM	0.74 µM	NS(=O)(=O)c1ccc([C@@H]2[C@@H](c3nsc(-c4ccccc4)n3)C2(F)F)cc1 [Example L13]
0.5 to 5 µM		NS(=O)(=O)c1ccc([C@@H]2C[C@H]2c2csc(C3CCCC3)n2)cc1 [Example L14]
0.1 to 0.5 µM		CC1(C)[C@@H](c2ccc(S(N)(=O)=O)cc2)[C@@H]1c1noc(C2CCCCC23CC3)n1 (stereo partly drawn) [Example I27]
0.5 to 5 µM		COc1ccc(Cl)cc1-c1noc(C2C(c3ccc(S(N)(=O)=O)cc3)C2(F)F)n1 (stereo not drawn) [Example E2]
0.5 to 5 µM		CC1(C)[C@@H](c2ccc(S(N)(=O)=O)cc2)[C@@H]1c1cn(-c2ccccc2)nn1 [Example L7]
≤ 0.1 µM	0.096 µM	CC1(C)[C@@H](c2ccc(S(N)(=O)=O)cc2)[C@@H]1c1noc(C2CCc3cc(F)ccc32)n1 (stereo partly drawn) [Example I3]
0.1 to 0.5 µM	0.37 µM	CC1(C)[C@@H](c2ccc(S(N)(=O)=O)cc2)[C@@H]1c1csc(C2CCCC2)n1 [Example L15]
5 to 50 µM		NS(=O)(=O)c1ccc([C@@H]2C[C@H]2c2nc(-c3ccccc3)c[nH]2)cc1 [Example K12]
0.5 to 5 µM		CC1(C)[C@H](c2ccc(S(N)(=O)=O)cc2)[C@H]1c1noc(C2(C(F)(F)F)CC2)n1 [Example L19]
0.1 to 0.5 µM		NS(=O)(=O)c1ccc([C@@H]2C[C@H]2c2nc(C3CCCC3)co2)cc1 [Example K18]
0.5 to 5 µM	0.71 µM	CC1(C)[C@@H](c2ccc(S(N)(=O)=O)cc2)[C@@H]1c1noc(C2CC2)n1 [Example I25]
0.5 to 5 µM		NS(=O)(=O)c1ccc(C2C(c3ncc(-c4ccccc4)o3)C2(F)F)cc1 (racemic) [Example M1]
0.1 to 0.5 µM		CC1(C)[C@@H](c2ccc(S(N)(=O)=O)cc2)[C@@H]1c1noc(Cc2ccc(F)cc2F)n1 [Example I1]
0.5 to 5 µM		Cn1ccc(-c2nc([C@H]3[C@H](c4ccc(S(N)(=O)=O)cc4)C3(C)C)no2)c1 [Example I10]
0.5 to 5 µM		CC1(C)[C@@H](c2ccc(S(N)(=O)=O)cc2)[C@@H]1c1noc(-c2cccc3c2OCC(=O)N3)n1 [Example I31]
0.5 to 5 µM		CC1(C)[C@@H](c2ccc(S(N)(=O)=O)cc2)[C@@H]1c1noc(-c2nc(-c3ccc(F)cc3)c[nH]2)n1 [Example I17]
0.5 to 5 µM		NS(=O)(=O)c1ccc([C@@H]2C[C@H]2c2nnc(C3CCCC3)s2)cc1 [Example G16]
0.5 to 5 µM		CC1(C)[C@@H](c2ccc(S(N)(=O)=O)cc2)[C@@H]1c1nnc(C2CC2)s1 [Example G15]
0.1 to 0.5 µM		CC1(C)[C@@H](c2ccc(S(N)(=O)=O)cc2)[C@@H]1c1noc(-c2cnccc2C(F)(F)F)n1 [Example I20]
0.5 to 5 µM		CC1(C)[C@@H](c2ccc(S(N)(=O)=O)cc2)[C@@H]1c1noc(CCC2CC2)n1 [Example I33]
0.1 to 0.5 µM	0.35 µM	NS(=O)(=O)c1ccc([C@@H]2C[C@H]2c2ncc(C3CC3)o2)cc1 [Example K5]
0.5 to 5 µM	1.2 µM	CC1(C)[C@H](c2ccc(S(N)(=O)=O)cc2)[C@H]1c1nc(-c2ccccc2F)co1 [Example J1]
0.5 to 5 µM	1.5 µM	CC1(C)[C@@H](c2ccc(S(N)(=O)=O)cc2)[C@@H]1c1noc(-c2cccc(F)c2)n1 [Example H5]
≤ 0.1 µM	0.064 µM	CC1(C)[C@@H](c2ccc(S(N)(=O)=O)cc2)[C@@H]1c1noc(C2CCCC2)n1 [Example I26]
